The source of these data is US8569292B2, “Cyclic inhibitors of 11β-hydroxysteroid dehydrogenase 1” (Vitae Pharmaceuticals, Inc., priority 2008, dated 2013).

Some results are limits rather than exact numbers.

Assay [1] has as its target T1, 11β-HSD1 (Homo sapiens, UniProt P28845). Description: Biological Test Example 4: microsomal 11β-HSD1 in the presence of 50% human plasma. Conditions: for Shift: IC50 in Test Example 4 divided by IC50 in Test Example 1.
The target of assay [2] is T1, 11β-HSD1. The assay is described as follows: biochemical. Conditions: for inhibition at 0.1 µM: read-out: Average % inhibition at 100 nM.
In another assay the target is T2, CYP2C9 (Homo sapiens, UniProt P11712).
T2 construct: purchased Invitrogen 2859; host or cells: insect cells infected with baculovirus (microsomes)
T2 sequence (P11712 whole entry): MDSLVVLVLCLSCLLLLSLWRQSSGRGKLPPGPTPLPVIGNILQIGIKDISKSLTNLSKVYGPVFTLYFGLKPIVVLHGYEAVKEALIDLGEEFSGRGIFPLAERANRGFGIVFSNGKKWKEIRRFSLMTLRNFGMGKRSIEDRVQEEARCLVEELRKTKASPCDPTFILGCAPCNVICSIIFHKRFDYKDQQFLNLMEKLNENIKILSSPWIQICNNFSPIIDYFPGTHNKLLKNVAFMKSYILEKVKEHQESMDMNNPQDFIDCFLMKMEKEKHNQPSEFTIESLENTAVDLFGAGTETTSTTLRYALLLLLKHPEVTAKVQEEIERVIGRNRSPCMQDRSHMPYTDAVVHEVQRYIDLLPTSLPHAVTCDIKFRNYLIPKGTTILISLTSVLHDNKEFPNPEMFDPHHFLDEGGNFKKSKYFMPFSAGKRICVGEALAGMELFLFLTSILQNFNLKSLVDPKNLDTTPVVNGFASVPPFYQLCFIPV
The assay is described as follows: Biological Test Example 9: CYP2C9 inhibition (Invitrogen kit, fluorogenic OOMR). Format: in vitro ADME.

[3] abbreviates: Biological Test Example 1 IC50 (nM).
Setting [4] is: IC50 Range, Biological Test Example 1.

T1 sequence (P28845 whole entry): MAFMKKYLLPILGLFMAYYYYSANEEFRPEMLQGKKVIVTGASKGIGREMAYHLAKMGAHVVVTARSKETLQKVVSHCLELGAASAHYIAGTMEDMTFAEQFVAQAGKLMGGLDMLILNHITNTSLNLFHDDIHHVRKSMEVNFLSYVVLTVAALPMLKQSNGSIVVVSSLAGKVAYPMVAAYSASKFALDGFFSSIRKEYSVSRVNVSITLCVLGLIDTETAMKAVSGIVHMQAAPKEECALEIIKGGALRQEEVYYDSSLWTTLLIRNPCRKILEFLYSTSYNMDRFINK

Regarding `COc1cc(-c2ccc([C@H](C)N3CC[C@](CCCO)(c4ccc(F)cc4)OC3=O)cc2)ccn1` [EXAMPLE 147, (R)-6-(4-fluorophenyl)-6-(3-hydroxypropyl)-3-((S)-1-(4-(2-methoxypyridin-4-yl)phenyl)ethyl)-1,3-oxazinan-2-one], the IC50 at 11β-HSD1 [1] is 7.9 nM; against 11β-HSD1 [2] (setting [3]), 0.9 nM; against 11β-HSD1 [2] (setting [4]), under 100 nM; against CYP2C9 it was 4600 nM. Also, the inhibition at 0.1 µM on 11β-HSD1 [2] is 98.7%.
Take `Cc1cc(-c2ccc([C@H](C)N3CC[C@](C)(c4ccc(F)cc4)OC3=O)cc2)ccn1` (single isomer, unassigned) [EXAMPLE 107.2]: the IC50 on 11β-HSD1 [1] was 269 nM; at 11β-HSD1 [2] (setting [3]) it was 3.2 nM; against 11β-HSD1 [2] (setting [4]), under 100 nM; on CYP2C9 it was 17500 nM. Moreover, at 11β-HSD1 [1], the Shift came to 83.8. Moreover, at 11β-HSD1 [2], the inhibition at 0.1 µM was found to be 93.6%.
For `C[C@@H](c1ccc(-c2ccn(C)n2)cc1)N1CC[C@](CCCO)(c2ccccc2)OC1=O` [EXAMPLE 100, (R)-6-(3-hydroxypropyl)-3-((S)-1-(4-(1-methyl-1H-pyrazol-3-yl)phenyl)ethyl)-6-phenyl-1,3-oxazinan-2-one], the IC50 at 11β-HSD1 [1] was 6 nM; against 11β-HSD1 [2] (setting [3]) it was 1.2 nM; against 11β-HSD1 [2] (setting [4]), under 100 nM; on CYP2C9, 4500 nM. Moreover, on 11β-HSD1 [1], the Shift is given as 4.8. Further, the inhibition at 0.1 µM on 11β-HSD1 [2] was determined as 93.1%.
On to `C[C@@H](c1ccc(-c2cc[nH]n2)cc1)N1CC[C@](CCCO)(c2ccccc2)OC1=O` [EXAMPLE 45, (R)-3-((S)-1-(4-(1H-pyrazol-3-yl)phenyl)ethyl)-6-(3-hydroxypropyl)-6-phenyl-1,3-oxazinan-2-one], for which the IC50 at 11β-HSD1 [1] is 13.5 nM; at 11β-HSD1 [2] (setting [3]), 3 nM; at 11β-HSD1 [2] (setting [4]) it was under 100 nM; at CYP2C9, 9000 nM. Also, the inhibition at 0.1 µM on 11β-HSD1 [2] came to 96.7%.
Turning to `C=CC[C@]1(c2ccc(F)cc2)CCN([C@@H](C)c2ccc(-c3cncc(Cl)c3)cc2)C(=O)O1` [EXAMPLE 54, (R)-6-allyl-3-((S)-1-(4-(5-chloropyridin-3-yl)phenyl)ethyl)-6-(4-fluorophenyl)-1,3-oxazinan-2-one], the IC50 was 39.4 nM at 11β-HSD1 [1], 1 nM at 11β-HSD1 [2] (setting [3]), under 100 nM against 11β-HSD1 [2] (setting [4]) and 400 nM against CYP2C9. The Shift at 11β-HSD1 [1] is recorded as 38.4. The inhibition at 0.1 µM on 11β-HSD1 [2] is 97.1%.
Consider `Cc1cc(-c2ccc([C@H](C)N3CC[C@](CCCO)(c4ccccc4)OC3=O)cc2)cc(C)[n+]1[O-]` [EXAMPLE 120, 4-(4-((S)-1-((R)-6-(3-hydroxypropyl)-2-oxo-6-phenyl-1,3-oxazinan-3-yl)ethyl)phenyl)-2,6-dimethylpyridine 1-oxide], for which the IC50 is 24.2 nM at 11β-HSD1 [1], 6.7 nM against 11β-HSD1 [2] (setting [3]), under 100 nM at 11β-HSD1 [2] (setting [4]) and 4700 nM against CYP2C9. In addition, the Shift at 11β-HSD1 [1] is given as 3.6. Further, at 11β-HSD1 [2], the inhibition at 0.1 µM stood at 93.1%.
Consider `COc1ccc(-c2ccc([C@H](C)N3CC[C@](CC(C)(C)O)(c4ccc(F)cc4)OC3=O)cc2)cn1` [EXAMPLE 64, (S)-6-(4-fluorophenyl)-6-(2-hydroxy-2-methylpropyl)-3-((S)-1-(4-(6-methoxypyridin-3-yl)phenyl)ethyl)-1,3-oxazinan-2-one], for which the IC50 at 11β-HSD1 [1] was 6.2 nM; at 11β-HSD1 [2] (setting [3]), 0.8 nM; against 11β-HSD1 [2] (setting [4]), under 100 nM; at CYP2C9, 4700 nM. Besides, the Shift at 11β-HSD1 [1] is 8.2. Moreover, the inhibition at 0.1 µM at 11β-HSD1 [2] was 99.6%.
Consider `Cc1cc(-c2ccc([C@H](C)N3CC[C@](CC4(O)CC4)(c4ccc(F)cc4)OC3=O)cc2)ccn1` [EXAMPLE 115, (S)-6-(4-fluorophenyl)-6-((1-hydroxycyclopropyl)methyl)-3-((S)-1-(4-(2-methylpyridin-4-yl)phenyl)ethyl)-1,3-oxazinan-2-one], for which the IC50 at 11β-HSD1 [1] is 10.3 nM; at 11β-HSD1 [2] (setting [3]) it was 1 nM; against 11β-HSD1 [2] (setting [4]) it was under 100 nM; on CYP2C9, 4400 nM. For the same molecule, the Shift at 11β-HSD1 [1] came to 10.2. Also, at 11β-HSD1 [2], the inhibition at 0.1 µM was 95.1%.
As for `C[C@@H](c1ccc(-c2ccccn2)cc1)N1CC[C@](CCCO)(c2ccc(F)cc2)OC1=O` [EXAMPLE 59, (R)-6-(4-fluorophenyl)-6-(3-hydroxypropyl)-3-((S)-1-(4-(pyridin-2-yl)phenyl)ethyl)-1,3-oxazinan-2-one], the IC50 at 11β-HSD1 [1] was 5.1 nM; at 11β-HSD1 [2] (setting [3]), 0.5 nM; on 11β-HSD1 [2] (setting [4]), under 100 nM; against CYP2C9 it was 10900 nM. Besides, the Shift on 11β-HSD1 [1] is 9.9. Further, on 11β-HSD1 [2], the inhibition at 0.1 µM was determined as 100%.
Regarding `C[C@@H](c1ccc(-c2cccnn2)cc1)N1CC[C@](CCCO)(c2ccc(F)cc2)OC1=O` [EXAMPLE 132, (R)-6-(4-fluorophenyl)-6-(3-hydroxypropyl)-3-((S)-1-(4-(pyridazin-3-yl)phenyl)ethyl)-1,3-oxazinan-2-one], the half-inhibitory concentration (IC50) on 11β-HSD1 [1] is 18.9 nM; on 11β-HSD1 [2] (setting [3]) it was 6.1 nM; on 11β-HSD1 [2] (setting [4]) it was under 100 nM; against CYP2C9, 18300 nM. At 11β-HSD1 [1], the Shift is reported as 3.1. Besides, the inhibition at 0.1 µM at 11β-HSD1 [2] is 95.2%.
Regarding `Cc1cc(-c2ccc([C@H](C)N3CC[C@](CC(C)(C)O)(c4ccc(F)cc4)OC3=O)cc2)cc(C)[n+]1[O-]` [EXAMPLE 123, 4-(4-((S)-1-((S)-6-(4-fluorophenyl)-6-(2-hydroxy-2-methylpropyl)-2-oxo-1,3-oxazinan-3-yl)ethyl)phenyl)-2,6-dimethylpyridine 1-oxide], the IC50 at 11β-HSD1 [1] is 11.1 nM; against 11β-HSD1 [2] (setting [3]), 6.6 nM; against 11β-HSD1 [2] (setting [4]), under 100 nM; against CYP2C9, 9100 nM. The Shift at 11β-HSD1 [1] is 1.7. Further, at 11β-HSD1 [2], the inhibition at 0.1 µM turned out to be 93.6%.
For the molecule `COc1ccc(-c2ccc([C@H](C)N3CC[C@](CCCO)(c4ccc(F)cc4)OC3=O)cc2)cn1` [EXAMPLE 65, (R)-6-(4-fluorophenyl)-6-(3-hydroxypropyl)-3-((S)-1-(4-(6-methoxypyridin-3-yl)phenyl)ethyl)-1,3-oxazinan-2-one], the IC50 was 3.8 nM on 11β-HSD1 [1], 0.4 nM at 11β-HSD1 [2] (setting [3]), under 100 nM against 11β-HSD1 [2] (setting [4]) and 4000 nM at CYP2C9. For the same molecule, the Shift on 11β-HSD1 [1] was 8.8. Moreover, the inhibition at 0.1 µM at 11β-HSD1 [2] stood at 99%.
Regarding `C[C@@H](c1ccc(-c2cncc(Cl)c2)cc1)N1CC[C@](CCCO)(c2ccc(F)cc2)OC1=O` [EXAMPLE 69, (R)-3-((S)-1-(4-(5-chloropyridin-3-yl)phenyl)ethyl)-6-(4-fluoroPhenyl)-6-(3-hydroxypropyl)-1,3-oxazinan-2-one], the IC50 is 6.3 nM at 11β-HSD1 [1], 0.6 nM against 11β-HSD1 [2] (setting [3]), under 100 nM against 11β-HSD1 [2] (setting [4]) and 2300 nM at CYP2C9. The Shift on 11β-HSD1 [1] stood at 9.8. For the same molecule, on 11β-HSD1 [2], the inhibition at 0.1 µM turned out to be 98.3%.
As to `Cc1cc(-c2ccc([C@H](C)N3CC[C@@](C)(c4ccc(F)cc4)OC3=O)cc2)ccn1` (single isomer, unassigned) [EXAMPLE 107.1], the 50% inhibitory concentration (IC50) at 11β-HSD1 [1] was 86.4 nM; against 11β-HSD1 [2] (setting [3]), 3.2 nM; at 11β-HSD1 [2] (setting [4]) it was under 100 nM; against CYP2C9, 2700 nM. Further, the Shift on 11β-HSD1 [1] worked out at 26.9. Moreover, the inhibition at 0.1 µM at 11β-HSD1 [2] came to 95.5%.

For orientation: IC50 means the concentration that inhibits the measured activity by half. Usually inhibition stands for the percentage by which the read-out fell short of the control.
